# Measurements from US20230391841A1, “MACROCYCLIC PEPTIDES” (Herantis Pharma OYJ, priority 2019, published 2023).
# Bridge positions count the residues as written; N and C are the ends. Peptide text beside a SMILES is read from it.
# Assay: Brain microdialysis (striatal interstitial fluid) after intravenous bolus
# Assay type: in vivo, male Sprague-Dawley rats
# Conditions: single 10 mg/kg intravenous bolus, microdialysis 4 hours
# Experimental: Microdialysis probes were inserted to the ventral striatum of rats through implanted guide […] cannulas and perfused by aCSF. Compound 14 was administered as a single 10 mg/kg intravenous bolus injection and microdialysis samples were collected in 20-min interval for 4 hours. The brain interstitial fluid (ISF) concentrations of the compound were determined by LC-MS/MS and normalized to the recovery-% of the microdialysis membrane (determined by in vitro experiments).
# Brain microdialysis study was carried out on the separate group of awake animals treated intravenously with compound 14. One week before the microdialysis experiment Sprague- Dawley rats were implanted with a guide cannula in the striatum at the following coordinates: AP +0.6 mm; L −3.0 mm; V −2.8 mm, providing the final V −6.8 mm for the tip of the microdialysis probe. On the day of the experiment a microdialysis probe (Eicom A-I: 0.22 mm O.D., 4 mm membrane length with cut-off 50 kDa) were inserted into the guide cannula and perfused at a constant flow-rate of 0.1 μL/min with artificial cerebrospinal fluid (aCSF) solution. […] The brain intrastitial fluid concentrations of the compound were analysed by UHPLC-MS/MS. […] Determined recovery percentage (29.3%) was used for correction of the data obtained in microdialysis study.
compound,measurement,value
"C[C@@H]1NC(=O)[C@@H]2CSSC[C@H](NC(=O)[C@H]([C@@H](C)O)NC(=O)[C@H](CCC(=O)O)NC(=O)CNC(=O)[C@H](Cc3c[nH]c4ccccc34)NC(=O)[C@H](CO)NC(=O)[C@H](CCCCN)NC(=O)[C@H](CCC(=O)O)NC1=O)C(=O)N[C@@H](CCCCN)C(=O)NCC(=O)N2 [Compound 14, WGETCKGCAEKS] (cyclo(AEKSWGETCKGC); disulfide 9-12)","penetration to the brain parenchyma (brain ISF, striatum)",penetration
